This note sets out measurements from PubChem BioAssay AID328 (DTP/NCI, 2004).

The subject of this experiment is BDF1 mice, P388 leukemia ip, median survival T/C. Put plainly: NCI In Vivo Anticancer Drug Screen. Data for tumor model P388 Leukemia (intraperitoneal) in B6D2F1 (BDF1) mice. Conditions: endpoint: median survival time, higher = longer survival. An outline of the steps:
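Antitumour effect was judged in vivo: survival in drug-treated mice, normalised to that of vehicle-dosed controls, gives the reported T/C.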

Setting [1] is: dose: 100.0 mg/kg/injection, schedule: Q04DX003 (ip), vehicle: Klucel (hydroxypropylcellulose) (HPC).
Setting [2] is: dose: 200.0 mg/kg/injection, schedule: Q04DX003 (ip), vehicle: Klucel (hydroxypropylcellulose) (HPC).
Where [3] appears, read: dose: 400.0 mg/kg/injection, schedule: Q04DX003 (ip), vehicle: Klucel (hydroxypropylcellulose) (HPC).
The mark [4] stands for this setting: dose: 100.0 mg/kg/injection, schedule: Q01DX009 (ip), vehicle: Klucel (hydroxypropylcellulose) (HPC).
The mark [5] stands for this setting: dose: 200.0 mg/kg/injection, schedule: Q01DX009 (ip), vehicle: Klucel (hydroxypropylcellulose) (HPC).
Where [6] appears, read: dose: 400.0 mg/kg/injection, schedule: Q01DX009 (ip), vehicle: Klucel (hydroxypropylcellulose) (HPC).
Setting [7] is: dose: 100.0 mg/kg/injection, schedule: Q01DX009 (ip), vehicle: saline with Tween-80.
The mark [8] stands for this setting: dose: 100.0 mg/kg/injection, schedule: Q04DX003 (ip), vehicle: saline with Tween-80.
Where [9] appears, read: dose: 200.0 mg/kg/injection, schedule: Q01DX009 (ip), vehicle: saline with Tween-80.
Setting [10] is: dose: 50.0 mg/kg/injection, schedule: Q01DX009 (ip), vehicle: saline with Tween-80.
[11] abbreviates: dose: 50.0 mg/kg/injection, schedule: Q01DX009 (ip), vehicle: saline.
Setting [12] is: dose: 100.0 mg/kg/injection, schedule: Q01DX009 (ip), vehicle: saline.
The mark [13] stands for this setting: dose: 200.0 mg/kg/injection, schedule: Q01DX009 (ip), vehicle: saline.
[14] abbreviates: dose: 12.5 mg/kg/injection, schedule: Q01DX009 (ip), vehicle: saline.
Where [15] appears, read: dose: 25.0 mg/kg/injection, schedule: Q01DX009 (ip), vehicle: saline.
The mark [16] stands for this setting: dose: 100.0 mg/kg/injection, schedule: Q01DX001 (ip), vehicle: saline with Tween-80.
Where [17] appears, read: dose: 200.0 mg/kg/injection, schedule: Q01DX001 (ip), vehicle: saline with Tween-80.
[18] abbreviates: dose: 400.0 mg/kg/injection, schedule: Q01DX001 (ip), vehicle: saline with Tween-80.
Where [19] appears, read: dose: 25.0 mg/kg/injection, schedule: Q01DX009 (ip), vehicle: saline with Tween-80.

Values joined by “and” are separate entries in the source; they are usually repeats but may differ in a detail not shown here. Equal values may be shown once. Inconclusive results and toxic doses are left out.

As for `Cc1cccc(NC(=O)c2ccccc2C(=O)O)c1C`, the T/C under setting [1] was 91 % of control, the T/C under setting [2] was 91 % of control and the T/C under setting [3] was 100 % of control.

Take `NC(=O)C1(NC2CCCCC2)CCN(Cc2ccccc2)CC1`: the T/C was 107 % of control (dose: 50.0 mg/kg/injection, schedule: Q01DX009 (ip), vehicle: gum acacia); 100 % of control (dose: 50.0 mg/kg/injection, schedule: Q04DX003 (ip), vehicle: gum acacia); 107 % of control (dose: 100.0 mg/kg/injection, schedule: Q01DX009 (ip), vehicle: gum acacia); 91 % of control (dose: 100.0 mg/kg/injection, schedule: Q04DX003 (ip), vehicle: gum acacia).

On to `COc1ccc(C(C(N)=O)N2CCCCC2)cc1` (stereo not drawn), for which the T/C reads like this: (dose: 100.0 mg/kg/injection, schedule: Q01DX009 (ip), vehicle: other) 115 % of control; under setting [1], 100 % of control; (dose: 200.0 mg/kg/injection, schedule: Q01DX009 (ip), vehicle: other) 105 % of control; under setting [2], 90 % of control; (dose: 400.0 mg/kg/injection, schedule: Q01DX009 (ip), vehicle: other) 100 % of control; under setting [3], 104 % of control.

Turning to `Cc1ccc([N+](=O)[O-])cc1NC(=O)Nc1ccc(S(N)(=O)=O)cc1`, the T/C was 100 % of control under setting [4], 100 % of control under setting [5] and 100 % of control under setting [6].

In the case of `CCOC(=O)C(CC(OCC)OCC)C(=O)OCC`, the T/C by setting is: under setting [7], 100 % of control; under setting [8], 104 % of control; under setting [9], 91 % of control; (dose: 200.0 mg/kg/injection, schedule: Q04DX003 (ip), vehicle: saline with Tween-80) 113 % of control; (dose: 400.0 mg/kg/injection, schedule: Q01DX009 (ip), vehicle: saline with Tween-80) 122 % of control; (dose: 400.0 mg/kg/injection, schedule: Q04DX003 (ip), vehicle: saline with Tween-80) 113 % of control.

Consider `Cc1cc(N(C)C)c2ccc3ccccc3c2n1`, for which the T/C reads like this: under setting [10], 93 % of control; under setting [7], 95 % of control; under setting [9], 101 % of control.

In the case of `O=S(=O)(CS(=O)(=O)C(F)(F)C(F)(F)C(F)(F)C(F)(F)F)C(F)(F)C(F)(F)C(F)(F)C(F)(F)F`, the T/C runs as follows: under setting [11], 114 % of control; under setting [12], 114 % of control; under setting [13], 106 % of control.

On to `CN1CCN(C(=O)N2c3ccccc3Sc3ccccc32)CC1`, for which the T/C is, setting by setting: under setting [14], 100 % of control; under setting [15], 110 % of control; under setting [11], 100 % of control; (dose: 200.0 mg/kg/injection, schedule: Q04DX003 (ip), vehicle: saline) 100 % of control.

On to `CCOC(=O)C(=Cc1ccc(O)c(OC)c1)C(=O)OCC`, for which the T/C under setting [16] is 90 % of control, the T/C under setting [17] is 95 % of control and the T/C under setting [18] was 104 % of control.

As for `CC(C)C(=O)[O][Sn]([c]1ccccc1)([c]1ccccc1)[c]1ccccc1`, the T/C (dose: 12.5 mg/kg/injection, schedule: Q01DX009 (ip), vehicle: saline with Tween-80) was 123 % of control.

As to `C#CC(c1ccccc1)(c1ccccc1)n1ccnc1`, the T/C by setting is: under setting [10], 98 % of control; under setting [7], 100 % of control; under setting [9], 98 % of control.

Consider `COc1ccc2c(c1)CCN(C1=C(C)C(=O)CC1)C2CC(=O)O` (stereo not drawn), for which the T/C reads like this: (dose: 100.0 mg/kg/injection, schedule: Q01DX001 (ip), vehicle: saline sonified) 100 % of control; (dose: 200.0 mg/kg/injection, schedule: Q01DX001 (ip), vehicle: saline sonified) 100 % of control; (dose: 400.0 mg/kg/injection, schedule: Q01DX001 (ip), vehicle: saline sonified) 100 % of control.

In the case of `COC(=O)CCCC1=NC2=CC=CC3=NC(C)=NC(=N1)N23`, the T/C by setting is: under setting [19], 110 % of control; under setting [7], 99 % of control.

In the case of `N#Cc1cnc2nc1NCCCCCCC2`, the T/C under setting [8] was 86 % of control.

For the compound `CN(C)c1ccc(Cc2ccc(N(C)C)nc2)cn1`, the T/C reads like this: under setting [4], 100 % of control; under setting [1], 95 % of control; under setting [5], 110 % of control; under setting [2], 100 % of control; under setting [6], 100 % of control; under setting [3], 95 % of control.

Turning to `C=C1C(=O)OC2C1CCC(=C)C1CC(O)C(=C)C12` (stereo not drawn), the T/C (dose: 7.4 mg/kg/injection, schedule: Q01DX009 (ip), vehicle: saline with Tween-80) is 91 % of control; the T/C (dose: 11.0 mg/kg/injection, schedule: Q01DX009 (ip), vehicle: saline with Tween-80) was 104 % of control; the T/C (dose: 16.0 mg/kg/injection, schedule: Q01DX009 (ip), vehicle: saline with Tween-80) was 91 % of control; the T/C under setting [19] is 100 % of control.

As to `COCCCNC1=C(Cl)C(=O)c2ccccc2C1=O`, the T/C (dose: 50.0 mg/kg/injection, schedule: Q01DX009 (ip), vehicle: Klucel (hydroxypropylcellulose) (HPC)) is 106 % of control; the T/C under setting [4] was 113 % of control; the T/C under setting [5] is 109 % of control.

Take `COc1cc(/C=C\C(=O)c2ccc(F)cc2)cc(OC)c1OC`: the T/C runs as follows: under setting [16], 98 % of control; under setting [17], 96 % of control; under setting [18], 100 % of control.

With `CCOC(=O)Nc1cc2c(c(N)n1)N=C(c1ccccc1)CN2`, the T/C (dose: 1.0 mg/kg/injection, schedule: Q01DX009 (ip), vehicle: saline with Tween-80) is 115 % of control; the T/C (dose: 2.0 mg/kg/injection, schedule: Q01DX009 (ip), vehicle: saline with Tween-80) was 151 % of control; the T/C (dose: 3.0 mg/kg/injection, schedule: Q01DX009 (ip), vehicle: saline with Tween-80) was 151 % of control; the T/C (dose: 3.0 mg/kg/injection, schedule: Q04DX003 (ip), vehicle: saline with Tween-80) is 117 % of control.

As to `O=[N+]([O-])c1ccc(N2CCCCC2)c2c1no[n+]2[O-]`, the T/C runs as follows: (dose: 15.0 mg/kg/injection, schedule: Q01DX009 (ip), vehicle: saline with Tween-80) 88 % of control; (dose: 30.0 mg/kg/injection, schedule: Q01DX009 (ip), vehicle: saline with Tween-80) 93 % of control; (dose: 60.0 mg/kg/injection, schedule: Q01DX009 (ip), vehicle: saline with Tween-80) 95 % of control.

For `CCOC(=O)C(NC=O)C(=O)OCC`, the T/C was 105 % of control under setting [11]; 94 % of control under setting [12]; 93 % of control under setting [13]; 93 % of control (dose: 400.0 mg/kg/injection, schedule: Q01DX009 (ip), vehicle: saline).

Turning to `NC(CSCc1ccccc1)CSCc1ccccc1`, the T/C is, setting by setting: (dose: 0.78 mg/kg/injection, schedule: Q04DX003 (ip), vehicle: saline) 99 % of control; (dose: 1.56 mg/kg/injection, schedule: Q04DX003 (ip), vehicle: saline) 86 % of control and 91 % of control; (dose: 6.25 mg/kg/injection, schedule: Q01DX009 (ip), vehicle: saline) 107 % of control; (dose: 6.25 mg/kg/injection, schedule: Q04DX003 (ip), vehicle: saline) 99 % of control and 104 % of control; under setting [14], 109 % of control; (dose: 12.5 mg/kg/injection, schedule: Q04DX003 (ip), vehicle: saline) 94 % of control and 95 % of control and 100 % of control. Moreover, the T/C reads like this: under setting [15], 118 % of control; (dose: 25.0 mg/kg/injection, schedule: Q04DX003 (ip), vehicle: saline) 99 % of control and 100 % of control and 120 % of control; under setting [11], 109 % of control; (dose: 50.0 mg/kg/injection, schedule: Q04DX003 (ip), vehicle: saline) 104 % of control; under setting [12], 109 % of control.
